By EC50 is commonly meant the midpoint of the concentration-response curve.

Each structure is given as a SMILES string. Active and inactive are the calls of the source.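 The calls were made as follows: active = EC50 of 10 µM or lower; inactive = EC50 above 10 µM.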

The assay deals with Caspase-7 (Homo sapiens) (UniProt P55210). As to the kind of experiment: activators of human procaspase-7 D3A mutant – biochemical, absorbance, PC-7 D3A triple mutant, powder samples, selectivity assay for procaspase-3 activator project, late-stage follow-up (AID 504814). The note with it: recombinant procaspase-7 D3A, Ac-DEVD-pNA absorbance.
Chain of Caspase-7 (Homo sapiens) (P55210 whole entry D23A/D198A/D206A): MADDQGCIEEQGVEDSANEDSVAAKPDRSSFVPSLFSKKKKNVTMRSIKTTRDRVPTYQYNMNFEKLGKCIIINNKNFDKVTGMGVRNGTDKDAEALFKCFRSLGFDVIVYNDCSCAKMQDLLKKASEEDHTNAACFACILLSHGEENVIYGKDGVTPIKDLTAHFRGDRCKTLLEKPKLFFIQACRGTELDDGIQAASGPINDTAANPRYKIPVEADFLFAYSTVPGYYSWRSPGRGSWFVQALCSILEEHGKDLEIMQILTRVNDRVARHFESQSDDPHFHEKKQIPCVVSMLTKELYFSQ
In the case of `CC(=O)Oc1cccc2c1C(=O)c1c(OC(C)=O)cc(C(=O)O)cc1C2=O`, the EC50 result is “inactive”.

In the case of `C=CCn1c(=NC(=O)c2cc(-c3cccs3)nc3ccccc23)sc2cc(S(N)(=O)=O)ccc21`, the EC50 was 7.68 µM.

On to `COc1ccccc1Nc1nc2c(C)cccc2cc1C#N`, for which the EC50 is > 85.3 µM (inactive).

Consider `COC(=O)c1ccccc1NCc1cc(=O)oc2cc(O)c(O)cc12`, for which the EC50 is > 85.3 µM (inactive).

Regarding `CC(NC(=O)c1cc2cc([N+](=O)[O-])ccc2oc1=O)C1CCCO1` (stereo not given), the EC50 entry was “inactive”.
